From patent publication US10064843B2, “Bis-amide derivative and use thereof” (University-Industry Cooperation Group of Kyung Hee …, priority 2013, dated 2018) come the findings set out here.

For series [1], the system named is NFAT1. In words: NFAT dephosphorylation by western blot and immunofluorescence. In kind it is cell-based, mouse. Here is the method: Upon stimulation, the cells were washed with sterile PBS, suspended in lysis buffer (Invitrogen, Carlsbad, Calif., USA), incubated on ice for 10 minutes, and centrifuged at 19,000 g for 15 minutes. The phosphorylation state of the NFAT protein in the supernatant was confirmed by western blot analysis using monoclonal anti-NFATc 1. For the confirmation of NFAT1 localization using a confocal microscope, the cells were washed and then fixed by treating with 3.7% formaldehyde at room temperature for 20 minutes. […] Upon incubation, the cells were washed twice with PBS and incubated in a dark room at room temperature with secondary antibody, which was conjugated with Alexa 546 (Invitrogen, Carlsbad, Calif., USA) diluted in PBS containing 3% BSA at a 1:200 ratio, for 2 hours. […] Finally, the cells were washed once with PBS and mounted onto glass slides using a coverslip and a mounting solution (Vector Mount, Calif., USA). The images were captured via Zeiss confocal laser scanning microscope (Zeiss, Germany).
(Immunoblotting shows a protein as a band on a membrane.)

In series [2] the test system is genotype 1b (Con1b) replication cells. In words: microbe, parasite or virus in culture. In kind it is cell-based, hepatitis C virus. Particulars: Hepatitis C virus. Here is the method:
(§1) The effect of WJCPA-126 was determined in percentage of fluorescent cells in each image using sub-genotype 1b replicated cells. EC50 and CC50 were determined via nonlinear regression analysis using GraphPad Prism (GraphPad Software). The GFP expression level was quantitated and shown in the left panel. The images of GFP at the level of replicated cells were obtained while increasing the concentration of WJCPA-126 and are shown on the right panel.

Series [3] can be described thus: in vitro. The note with it: genotype 1b Con1b; FIG. 11a. It counts as cell-based, hepatitis C virus. Here is the method:
as §1

Series [4] relates to HCV replicon cells. Briefly: Luciferase activity in HCV replicon cells. It counts as cell-based. The note with it: Hepatitis C virus, 72 h, read-out: inhibition of luciferase activity of HCV. Here is the method:
Additionally, a series of compounds (WJCPA-1 to WJCPA-135) having the bis-amide structure as a parent structure in common, based on the inhibitory effect of WJCPA-126 against the PPIase activity, were synthesized and their activities were confirmed. Specifically, Huh7-rep cells were treated with each of the compounds at a concentration of 2 μM for 3 days, and the expression level of NS5A was confirmed by performing an immunoblot analysis according to a known method (FIG. 5). The 32 kinds of compounds confirmed to have excellent inhibitory effect especially against the NS5A expression from the immunoblot experiment were measured regarding their inhibitory effect against luciferase activity and the results are illustrated in FIG. 6. In the same manner as in western blot, the HCV replicon cells were treated with each of the compounds at a concentration of 2 μM and incubated for 72 hours, and the total cell lysate of the cultured cells were used for the analyses of western blot and the activity of luciferase.

The test system of series [5] is murine splenocytes. In words: MTT cytotoxicity in murine splenocytes. It counts as cell-based, mouse. Particulars: up to 10 μM; FIG. 8a. Here is the method:
Example 3: Isolation of Splenocytes from Mice and Cell Culture
Seven to eight week-old female Balb/c mice were purchased from Orient Bio, Inc. (Sungnam, Korea). Experimental animals were allowed to maintain at a non-pathogenic environment and adapted before the experiment. Experimental mice were sacrificed by dislocation of spine, and the spleens collected therefrom were removed into petri dishes filled with RPMI containing 10% FBS, 100 units/mL of penicillin, and 100 μg/mL of streptomycin. The spleens were dispersed through a nylon mesh to prepare a single cell suspension, and RBC was depleted by using RBC lysis buffer (Sigma, St. Louis, Mo.). Splenocytes were washed and cultured in RPMI complete medium.
Example 9: Analysis of Cytotoxicity
Cytotoxicity was analyzed in a 96-well plate using 5 mg/mL of MTT (3-(4,5-dimethylthiasol-2-yl)-2,5-diphenyltetrazolium bromide). The optical density of cells was measured at 550 nm using a microplate reader (Bio-Rad, Richmond, Calif., USA). Cell viability rate was expressed in percentage of the absorbance of treated cells relative to the absorbance of untreated cells.

A short description of series [6]: Toxicity in BALB/c mice.
Experimental: The experimental animals were divided into three groups (n=5) and one of the groups was used as the untreated control group. […] Fourteen days after the administration, blood samples were collected from the treat groups and the control group, respectively. The weight of experimental mice was measured for the evaluation of systemic toxicity in mice. For the confirmation of hepatotoxicity, the AST and ALT activities were measured according to the manufacturer's protocols applied to a 96-well microplate using the GOT-GPT kit (Asan Pharm, Korea). The analysis results regarding the AST and ALT activities were shown in IU/L units. For the confirmation of nephrotoxicity, the blood urea nitrogen (BUN) was measured using the Blood Urea Nitrogen Enzymatic Assay kit (Bioo Scientific, Austin, Tex., USA), and the creatine level in the serum was measured using the Mouse Creatine Assay kit (Crystal Chem, Inc., Downers Grove, Ill., USA).
Series [7] relates to HCV-Con1b replicon. In words: HCV mouse model (NOD/SCID mice transplanted with Huh7 HCV-Con1b replicon cells). The note with it: 50 mg/kg intraperitoneally daily, two weeks. Here is the method:
Five to six-week old immunodeficient NOD/SCID mice (Charles River Laboratories, USA) were used. The use of experimental animals and experimental protocol (KHUASP (SE)-11-045) was approved by the Institutional Animal Care and Use Committee of Kyung Hee University (Seoul, Korea). The control Huh7 cells or the Huh7 cells including the HCV-Con1b replicon were injected into mice intrasplenically (1×10^6 cells/200 μL of PBS). Cell transplantation and surgical procedures were performed under anesthesia along with a prophylactic antibiotic. […] Each treatment group consisted of 5 mice. Upon completion of the treatment, the mice were sacrificed and liver tissues were collected from them for analysis.
Murine liver tissues were dissected and then cryoprotected in 30% sucrose for the preparation of paraffin-embedded samples. Paraffin samples for Hematoxylin and Eosin (H&E) staining were prepared. After removing paraffin, rehydrated samples were incubated with monoclonal antibodies to human hepatocytes (Hep par 1) and HCV NS5A (Santa Cruz, Calif., USA), which were diluted at a ratio of 1:50, at 4° C. overnight. […] The nuclei were stained with DAPI for 5 minutes and analyzed using a confocal microscope.
HCV RNA was extracted from liver tissue by Trizol method. Mouse liver tissues were mechanically destroyed and lysed in Trizol (Invitrogen, Carlsbad, Calif., USA). The quantitative analysis of HCV RNA was performed using real-time transcription PCR.

For series [8], the system named is IL-8. Briefly: IL-8 mRNA and IL-8 ELISA in HCV replicon cell. Particulars: 2 μM. It counts as cell-based, human. Here is the method: (§2) Example 11: Determination of IL-8 and INF-α Concentrations in Cell Culture Media by ELISA
(§3) Upon incubation, the cell culture media were collected and the IL-8 and IFN-α concentrations were analyzed according to the protocol of eBioscience (San Diego, Calif., USA) by ELISA.
(§4) Example 19: Real-Time Quantitative Reverse Transcriptase PCR Analysis
(§5) Real-time quantitative reverse transcriptase PCR (qRT-PCR) was performed using SYBR Green PCR Master Mix (Invitrogen/Applied Biosystem, Carlsbad, Calif., USA) and ABI Prism 7300 Real-time PCR System (Applied Biosystems, Carlsbad, Calif., USA) according to the manufacturer's instructions. Calculations were performed based on […] method using the following equation: R (ratio)=2-[ΔCT (sample)-ΔCT (control group)]. The data were expressed as fold change of the treated group relative to the control group and standardized relative to the glyceraldehyde 3-phosphate dehydrogenase (GAPDH) level.
Background: In an ELISA, binding on a coated surface is turned into a signal by an enzyme label.

Series [9] concerns IFN-α. Briefly: IFN-α mRNA and IFN-α ELISA in HCV replicon cell. In kind it is cell-based, human. Here is the method: as §2, §3, §4, §5

As to `COc1cc(C(C(=O)NC2CCCCC2)N(C(=O)Cc2c[nH]c3ccccc23)c2ccc(C(C)C)cc2)cc(OC)c1OC` (stereo not drawn) [WJCPA-126, N-cyclohexyl-2-[(2-1H-indol-3-yl-acetyl)-(4-isopropyl-phenyl)-amino]-2-(3,4,5-trimethoxy-phenyl)-acetamide], the “NFAT1 migration into the nucleus” value in series [1] (ionomycin stimulation, FIG. 9b) is on record as “significant localization of NFAT1 within the nucleus”. Further, in series [1] (ionomycin-stimulated, FIG. 9a), the “phosphorylation state of NFAT1” value was “maintained the dephosphorylated state of NFAT1”. Also, in [2], the half-maximal effective concentration (EC50) (as a rule, the midpoint of the concentration-response curve) was found to be 0.73 ± 0.1 µM. The CC50 (commonly the concentration that lowers cell viability or growth by half) in series [3] was 12.4 ± 2.1 µM. Further, the inhibition – broadly, how much of the control response was suppressed – at 2 µM in series [4] is at most 80%. Moreover, the “cytotoxicity in mouse splenocytes” value in series [5] is given as “no cytotoxicity”. Moreover, the “serum ALT and AST” value in [6] (50 mg/kg for 2 weeks, FIG. 17b, 17c) is “No difference was observed”. Further, the “safety parameters (body weight, serum ALT, AST, BUN, creatinine)” value in series [6] (50 mg/kg intraperitoneally daily, 14 days, FIG. 17) is “did not induce any noticeable change on safety parameters”. The body weight result in [7] (FIG. 19a) was “did not show any noticeable change in body weight”. In series [7] (FIG. 19b), the “HCV RNA level in liver” value was “relatively higher level of inhibition on the HCV RNA level than the CsA treatment”. Further, the “HCV NS5A in transplanted mouse liver tissue (immunofluorescence)” value in series [7] (FIG. 20) is reported as “only faintly detected”. Besides, the “mRNA level of IL-8” value in [8] (FIG. 15b) is listed as “significant reduction of mRNA level of IL-8 in a time-dependent manner”. In addition, the “IL-8 production (ELISA)” value in [8] (FIG. 15c) was “significantly reduces the expression of IL-8 production”. Also, the “mRNA level of IFN-α” value in series [9] (48 hours after the treatment, FIG. 15d) is reported as “cannot control the mRNA level of IFN-α”. Moreover, the “IFN-α production (ELISA)” value in series [9] (FIG. 15e) is “significantly increase the IFN-α production”.
